# Data from PMC3510438, “The transmembrane tyrosines Y56, Y91 and Y167 play important roles in determining the affinity and transport rate of the rabbit proton-coupled peptide transporter PepT1” (The International Journal of Biochemistry & Cell Biology, 2009).
# Positions count from the first letter of the chain named. Where a SMILES comes first, the peptide text is derived from it. [ ]: non-standard residue; d: D form. Sar = CNCC(=O)O
# Columns and labels:
# Y56F-rPepT1 [1] = target: T1, Y56F-rPepT1 (Oryctolagus cuniculus, UniProt P36836, Y56F); parameters: method as in Chen et al. (2000); conditions: Y56F mutant versus wild-type; ref Chen et al. (2000); cited from earlier work
# T1 construct: expressed in transfected cells; host or cells: Xenopus laevis oocytes injected with cRNA
# T1 sequence (P36836 1-707 Y56F): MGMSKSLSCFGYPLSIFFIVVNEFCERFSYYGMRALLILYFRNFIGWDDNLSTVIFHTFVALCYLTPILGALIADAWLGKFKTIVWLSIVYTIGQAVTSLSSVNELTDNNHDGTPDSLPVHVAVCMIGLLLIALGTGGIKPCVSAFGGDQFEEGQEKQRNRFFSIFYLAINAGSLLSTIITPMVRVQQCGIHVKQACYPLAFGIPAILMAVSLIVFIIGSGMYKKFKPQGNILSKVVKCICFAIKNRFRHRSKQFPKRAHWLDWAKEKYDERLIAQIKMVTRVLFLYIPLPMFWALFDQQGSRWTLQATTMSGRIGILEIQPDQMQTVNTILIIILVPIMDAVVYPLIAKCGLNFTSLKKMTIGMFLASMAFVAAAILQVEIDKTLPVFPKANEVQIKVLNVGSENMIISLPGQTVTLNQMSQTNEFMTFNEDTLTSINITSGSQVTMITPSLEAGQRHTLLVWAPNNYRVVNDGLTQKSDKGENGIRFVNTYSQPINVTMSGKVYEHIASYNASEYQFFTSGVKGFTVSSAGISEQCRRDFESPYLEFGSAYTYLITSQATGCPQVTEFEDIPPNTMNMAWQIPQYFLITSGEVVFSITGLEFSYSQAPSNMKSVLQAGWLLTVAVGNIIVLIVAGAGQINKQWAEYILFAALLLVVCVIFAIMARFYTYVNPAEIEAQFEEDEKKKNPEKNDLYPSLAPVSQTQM
# Y56A mutation of PepT1 = test system: Y56A mutation of PepT1; parameters: method as in Chen et al. (2000); conditions: ref Chen et al. (2000); cited from earlier work
# [2] = test system: hPepT1 with mutations of Y167; parameters: method as in Yeung et al., 1998; conditions: transfected HEK293 cells; ref Yeung et al., 1998; cited from earlier work
# wild-type rPepT1 = target: T2, wild-type rPepT1 (Oryctolagus cuniculus, UniProt P36836); test: Competition of [3H]-D-Phe-L-Gln uptake into Xenopus oocytes, Ki by method of Deves and Boyd; type: cell-based, rabbit; conditions: pHout 5.5; inhibition of 0.4 μM [3H]-D-Phe-L-Gln uptake; n = 4
# T2 construct: expressed in transfected cells; host or cells: Xenopus laevis oocytes injected with cRNA
# T2 sequence (P36836 1-707): T1 sequence (P36836 1-707 Y56F) with F56Y
# Protocol: rPepT1 constructs were linearised with XbaI (New England Biolabs, UK) and cRNA generated by in vitro transcription (T7 mMessage mMachine, Ambion, Cambridgeshire, UK). Xenopus laevis oocytes were obtained under MS222 anaesthesia (0.2%, w/v) in accordance with the UK Animals (Scientific Procedures) Act, 1986, and maintained at 18 °C in modified Barth's medium (88 mM NaCl, 1 mM KCl, 0.82 mM MgSO4, 2.4 mM NaHCO3, 0.42 mM CaCl2, 10 mM Hepes, 5 mM sodium pyruvate, 50 μg ml^−1 gentamicin (Fluka, Poole, UK), adjusted to pH 7.6 with 1 M NaOH). Transport measurements were performed at least 72 h after micro-injection of oocytes with 27nl cRNA (1 μg/μl), with medium changed daily.
# Uptake of [^3H]-D-Phe-L-Gln (17.4 Ci/mmole, custom synthesised, Cambridge Research Biochemicals, Stockton-on-Tees, UK) was performed as previously described ([Meredith, 2004]). Briefly, 5 oocytes were incubated in 100 μl of uptake medium (95 mM NaCl, 2 mM KCl, 1 mM CaCl2, 0.42 mM MgCl2, 10 mM Tris/Hepes pH 7.4 or Tris/Mes pH 5.5) with tracer (0.4 μM) [^3H]-D-Phe-L-Gln. After incubation, the oocytes were washed sequentially five times in 1 ml of ice-cold 120 mM NaCl solution, lysed individually with 100 μl 2% (w/v) SDS and liquid scintillation counted. As a control non-injected oocytes were also incubated in uptake medium with D-Phe-L-Gln as above.
# The affinity of wild-type and mutant rPepT1 transporters were assessed by competition studies with 0.4 μM [^3H]-D-Phe-L-Gln and Gly-L-Gln present in the uptake medium in concentrations from 0 to 2 mM using the protocol above, and the Ki calculated using the method of [Deves and Boyd (1989)].
# Y56F-rPepT1 [3] = target: T1, Y56F-rPepT1; test: Competition of [3H]-D-Phe-L-Gln uptake into Xenopus oocytes, Ki; type: cell-based, rabbit; conditions: pHout 5.5, n = 4; for Ki: inhibition of 0.4 μM [3H]-D-Phe-L-Gln uptake
# Protocol: rPepT1 constructs were linearised with XbaI (New England Biolabs, UK) and cRNA generated by in vitro transcription (T7 mMessage mMachine, Ambion, Cambridgeshire, UK).
# As a control non-injected oocytes were also incubated in uptake medium with D-Phe-L-Gln as above.
SMILES,reduction of transport (Y56F-rPepT1 [1]),transport (Y56A mutation of PepT1),uptake [2],Ki (wild-type rPepT1),Ki (Y56F-rPepT1 [3]),"fold change in affinity (Ki), wild-type rPepT1 versus Y56F-rPepT1 (Y56F-rPepT1 [3])"
CC(C)C[C@H](NC(=O)CN)C(=O)O [Gly-L-Leu],approximately 85%,lost completely,–,–,–,–
CN(CC(=O)O)C(=O)CN [Gly-Sar] (H-Gly-[Sar]-OH),–,–,no measurable uptake,–,–,–
NC(=O)[C@H](Cc1ccc(O)cc1)NC(=O)[C@@H](N)Cc1ccccc1 [Phe-Tyr-NH2] (H-Phe-Tyr-NH2),–,–,–,6600 ± 1620 µM,72.9 ± 20.5 µM,64.4 ± 26.0 fold
NC(Cc1ccccc1)C(=O)NC(Cc1ccc(O)cc1)C(=O)O (stereo not drawn) [Phe-Tyr] (H-Phe-Tyr-OH; configuration not given here),–,–,–,200 ± 30 µM,0.86 ± 0.26 µM,336.4 ± 100.6 fold
